From ChEMBL document CHEMBL2016494, “Ligand-based design of a potent and selective inhibitor of cytochrome P450 2C19” (J Med Chem, 2012)

Legend:
[1] = Apparent intrinsic clearance in human liver microsomes by LC-MS/MS analysis
[2] = Half life in human liver microsomes by LC-MS/MS analysis
[3] = target: T1, Cytochrome P450 2B6 (Homo sapiens, UniProt P20813); experiment: Inhibition of CYP2B6 in human liver microsomes using bupropion as substrate preincubated for 5 mins by LC-MS/MS analysis
T1 sequence (P20813 whole entry): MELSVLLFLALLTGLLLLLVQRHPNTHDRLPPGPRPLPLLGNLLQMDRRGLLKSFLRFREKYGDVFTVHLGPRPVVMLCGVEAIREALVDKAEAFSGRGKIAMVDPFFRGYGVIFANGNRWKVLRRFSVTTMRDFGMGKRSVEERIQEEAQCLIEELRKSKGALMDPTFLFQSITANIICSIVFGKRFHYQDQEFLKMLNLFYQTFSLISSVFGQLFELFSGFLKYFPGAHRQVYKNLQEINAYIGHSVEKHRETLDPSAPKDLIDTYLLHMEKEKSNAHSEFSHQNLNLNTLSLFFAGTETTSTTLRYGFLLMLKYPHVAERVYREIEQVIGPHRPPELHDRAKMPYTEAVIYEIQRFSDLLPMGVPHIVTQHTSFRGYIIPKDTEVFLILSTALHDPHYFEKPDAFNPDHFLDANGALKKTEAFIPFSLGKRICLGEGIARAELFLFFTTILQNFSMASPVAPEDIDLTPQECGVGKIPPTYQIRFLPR

[4] = target: Cytochrome P450 2E1 (Homo sapiens, UniProt P05181); experiment: Inhibition of CYP2E1 in human liver microsomes using chlorzoxazone as substrate preincubated for 5 mins by LC-MS/MS analysis
Cytochrome P450 2E1, sequence (P05181 whole entry): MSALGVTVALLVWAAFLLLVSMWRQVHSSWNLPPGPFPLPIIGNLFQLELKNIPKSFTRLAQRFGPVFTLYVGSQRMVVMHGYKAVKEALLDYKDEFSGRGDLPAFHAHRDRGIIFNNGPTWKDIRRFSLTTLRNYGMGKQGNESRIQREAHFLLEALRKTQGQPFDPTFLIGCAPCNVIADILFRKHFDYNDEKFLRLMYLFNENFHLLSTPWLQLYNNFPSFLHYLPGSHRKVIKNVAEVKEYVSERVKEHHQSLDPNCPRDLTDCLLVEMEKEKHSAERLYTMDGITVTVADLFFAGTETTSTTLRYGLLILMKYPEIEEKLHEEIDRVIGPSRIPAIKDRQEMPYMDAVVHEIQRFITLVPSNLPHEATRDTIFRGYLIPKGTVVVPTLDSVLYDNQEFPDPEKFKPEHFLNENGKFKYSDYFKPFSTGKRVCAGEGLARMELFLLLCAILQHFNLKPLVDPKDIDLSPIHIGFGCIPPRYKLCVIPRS

[5] = target: T2, Cytochrome P450 2C8 (Homo sapiens, UniProt P10632); experiment: Inhibition of CYP2C8 in human liver microsomes using paclitaxel as substrate preincubated for 5 mins by LC-MS/MS analysis
T2 sequence (P10632 whole entry): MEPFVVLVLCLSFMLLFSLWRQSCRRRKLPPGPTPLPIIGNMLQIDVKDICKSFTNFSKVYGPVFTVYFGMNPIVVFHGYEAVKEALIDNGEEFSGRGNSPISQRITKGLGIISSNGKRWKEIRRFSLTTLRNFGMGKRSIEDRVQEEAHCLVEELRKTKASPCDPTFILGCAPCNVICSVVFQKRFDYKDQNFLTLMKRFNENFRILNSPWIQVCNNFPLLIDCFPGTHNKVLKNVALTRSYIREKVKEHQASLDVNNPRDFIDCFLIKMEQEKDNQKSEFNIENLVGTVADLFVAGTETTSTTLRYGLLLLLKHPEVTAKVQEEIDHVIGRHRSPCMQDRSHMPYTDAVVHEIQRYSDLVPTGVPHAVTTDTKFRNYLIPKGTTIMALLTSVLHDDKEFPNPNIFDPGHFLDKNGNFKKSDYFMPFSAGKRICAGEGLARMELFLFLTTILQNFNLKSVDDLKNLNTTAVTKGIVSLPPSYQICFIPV

[6] = target: Cytochrome P450 2D6 (Homo sapiens, UniProt P10635); experiment: Inhibition of CYP2D6 in human liver microsomes using dextromethorphan as substrate preincubated for 5 mins by LC-MS/MS analysis
Cytochrome P450 2D6, sequence (P10635 whole entry): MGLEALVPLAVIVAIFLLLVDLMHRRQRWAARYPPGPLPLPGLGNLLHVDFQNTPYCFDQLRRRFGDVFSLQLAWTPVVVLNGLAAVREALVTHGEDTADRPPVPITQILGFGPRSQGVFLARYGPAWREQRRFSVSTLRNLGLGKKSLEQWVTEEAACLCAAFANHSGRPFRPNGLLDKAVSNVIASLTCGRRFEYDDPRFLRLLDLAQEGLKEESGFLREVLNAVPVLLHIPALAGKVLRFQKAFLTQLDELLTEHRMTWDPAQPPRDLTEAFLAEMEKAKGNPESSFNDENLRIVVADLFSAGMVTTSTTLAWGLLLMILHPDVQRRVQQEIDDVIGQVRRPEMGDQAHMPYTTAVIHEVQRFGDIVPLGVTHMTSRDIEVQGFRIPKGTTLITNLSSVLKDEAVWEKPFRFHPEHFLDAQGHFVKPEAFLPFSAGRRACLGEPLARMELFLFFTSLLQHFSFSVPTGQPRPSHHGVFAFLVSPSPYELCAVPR

[7] = target: T3, Cytochrome P450 1A2 (Homo sapiens, UniProt P05177); experiment: Inhibition of CYP1A2 in human liver microsomes using phenacetin preincubated for 5 mins by LC-MS/MS analysis
T3 sequence (P05177 whole entry): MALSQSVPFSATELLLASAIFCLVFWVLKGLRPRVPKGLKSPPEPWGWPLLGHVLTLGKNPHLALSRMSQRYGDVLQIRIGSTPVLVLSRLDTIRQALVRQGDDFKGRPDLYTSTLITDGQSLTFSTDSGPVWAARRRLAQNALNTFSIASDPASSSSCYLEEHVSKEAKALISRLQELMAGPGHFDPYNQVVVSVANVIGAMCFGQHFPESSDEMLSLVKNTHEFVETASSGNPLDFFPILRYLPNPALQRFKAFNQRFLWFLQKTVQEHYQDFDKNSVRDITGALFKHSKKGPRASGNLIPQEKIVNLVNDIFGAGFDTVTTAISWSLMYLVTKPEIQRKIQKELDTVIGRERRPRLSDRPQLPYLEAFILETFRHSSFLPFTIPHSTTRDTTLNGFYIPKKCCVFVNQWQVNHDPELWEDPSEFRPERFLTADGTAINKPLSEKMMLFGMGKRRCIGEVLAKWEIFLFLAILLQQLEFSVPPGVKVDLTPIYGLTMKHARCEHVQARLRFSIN

Structure (SMILES) | microsomal CLint ([1]; liver microsomes) [µL/min/mg] | half-life ([2]; liver microsomes) [h] | IC50 [3] [µM] | microsomal CLint ([1]; microsomes) [µL/min/mg] | half-life ([2]; microsomes) [h] | IC50 [4] [µM] | IC50 [5] [µM] | IC50 [6] [µM] | IC50 [7] [µM]
COc1ccc2[nH]c(SCCCC(=O)O)nc2c1 | < 57.8 | 2 | 28.8 |  |  |  |  |  | 
COc1ccc2[nH]c(SCc3ccccc3)nc2c1 |  |  | > 50 | < 57.8 | 2 | > 50 | > 50 |  | 
CCCSc1nc2ccc(OC)cc2[nH]1 |  |  |  | 724 | 0.16 |  | 3.12 | 1.94 | 0.93
COc1ccc2nc(SCc3ccc(C(=O)O)cc3)[nH]c2c1 | 860 | 0.134 |  |  |  |  |  |  | 
